Measured values as given in patent publication US7576113B2, “Use of (E)-5-(4-chlorbenzyliden)-2,2-dimethyl-1-(1H-1,2,4-triazol-1-ylmethyl) cyclopentanol for combating rust attacks on soya plants” (BASF Aktiengesellschaft, priority 2004, dated 2009).

What was measured:
Format in all cases: in vivo
[1] = system: Phakopsora pachyrhizi; experiment: Curative treatment of diseased soybean plants, field experiments
Experimental: In field experiments, different varieties of soybean plants whose leaves were already infested with Phakopsora pachyrhizi were treated with an aqueous triticonazole preparation using equipment conventionally used under practice conditions. The application rates were from 20 to 200 g/ha. 25 days after the treatment, the disease level on the untreated, but infested, leaves had developed to such an extent that it covered 50% of the leaf area. In the treated plants, in contrast, Phakopsora pachyrhizi disease had only reached a maximum of 25%.

[2] = system: Phakopsora pachyrhizi; experiment: Seed treatment of soybean c.v. Embrapa 48, rust disease of leaf areas; conditions: seed treatment 12.5, 25, 50, 100 and 250 g per 100 kg of seed, all cases, after 50 days; untreated at least 50%
Experimental: Seed of soybean plants c.v. “Embrapa 48” were treated with a composition suitable for seed treatment, comprising triticonazole as active substance, at application rates in the range of from 12.5 g, 25 g, 50 g, 100 g and 250 g of triticonazole per 100 kg of seed. Thereafter, the seed was sown. The soybean plants thus grown were then inoculated with Phakopsora pachyrhizi. After 50 days, the level of rust disease of the leaf areas was determined. The disease level in the plants from untreated seed was at least 50%, whereas the disease level of the leaf area in plants from treated seed was less than 25% in all cases.

[3] = system: Phakopsora pachyrhizi; experiment: Curative activity against soybean rust via spray application, potted seedlings in greenhouse; conditions: 3 days after inoculation, cultivar Hutcheson, untreated 80
Experimental: A commercial ready-to-used formulation of Triticonazole (suspension concentrate, concentration of active ingredient 200 g/l) was diluted with water to the active ingredient concentraten (act.conc.) given in Table 2.
Leaves of potted soybean seedlings of the cultivar “Hutcheson” were inoculated with a suspension of spores of soybean rust (Phakopsora pachyrhizi). The pots were placed in a chamber with high atmospheric humidity (90 to 95%) at 22 to 24° C. for 24 hours. During this time, the spores germinated and the germ tubes penetrated into the leaf tissue. After 3 days, the infected plants were sprayed to runoff point with an aqueous suspension having the concentration of active compound as given in table 2. The suspensions or emulsions were prepared as described above. After the spray coating was dry, the test plants were cultivated in a greenhouse at temperatures between 22 and 24° C. and at 90% relative humidity for 17 days. The extent of the rust development on the leaves was then determined.

[4] = system: Phakopsora pachyrhizi; experiment: Protective activity against soybean rust via seed treatment, field experiment in Brazil; conditions: cultivar IAC 8.2, 60 DAT, untreated 40
Experimental: A defined amound of a commercial ready-to-used formulation of Triticonazole (suspension concentrate, concentration of active ingredient 200 g/l), corresponding to the desired application (a.r.) rate of 5, 15, 30 und 50 g ai/100 kg soybean was diluted with water to a total volume of 1 Ltr./100 kg Soybean.
Soybean seeds of the cultivar “IAC 8.2” were treated in a commercial device for dressing seeds with the thus prepared aqueous suspension of triticonazole and then seeded in a field experiment in Brazil. The leaves of the soybean plants thus grown were inoculated at an appropriate growing stage with a spore suspension of soybean rust (Phakopsora pachyrhizi). Thereafter the plants were kept wet for 6-8 h overnight by means of a finely dripping sprinkling device. During this time the spores germinated and their germ tubes penetrated into the leaf tissue. 60 days after treatment (60 DAT) or seeding, respectively, the extent of rust formation on the leaves of the infected plants was determinated.

[5] = system: Phakopsora pachyrhizi; experiment: Protective treatment of soybean plants, field experiments
Experimental: In field experiments, different varieties of soybean plants were treated with an aqueous triticonazole preparation. The application rates amounted to 20 to 200 g/ha. Thereafter, the plants were inoculated with Phakopsora pachyrhizi. 25 days after the treatment, the disease level on the untreated, but infested, leaves had developed to such an extent that it covered 50% of the leaf area. In the treated plants, in contrast, Phakopsora pachyrhizi disease had only reached a maximum of 25%.

CC1(C)CC/C(=C\c2ccc(Cl)cc2)C1(O)Cn1cncn1 (centres unmarked) [triticonazole, (E)-5-(4-chlorobenzylidene)-2,2-dimethyl-1-(1H-1,2,4-triazol-1-ylmethyl)cyclopentanol]
yield in comparison with the untreated control ([1]; 20 to 200 g/ha, field): markedly improved
Phakopsora pachyrhizi disease level (leaf area covered) ([1]; aqueous preparation 20 to 200 g/ha, 25 days after treatment, different soybean varieties, untreated 50%): ≤ 25%
disease level of the leaf area [2]: less than 25%
% infected leaf area (17 DAT) ([3]; spray act. conc. 1 ppm): 9%
% infected leaf area (17 DAT) ([3]; spray act. conc. 4 ppm): 1%
% infected leaf area (60 DAT) ([4]; seed treatment a.r. 5 g/100 kg): 23%
% infected leaf area (60 DAT) ([4]; seed treatment a.r. 15 g/100 kg): 11%
% infected leaf area (60 DAT) ([4]; seed treatment a.r. 30 g/100 kg): 9%
% infected leaf area (60 DAT) ([4]; seed treatment a.r. 50 g/100 kg): 3%
yield in comparison with the untreated control ([5]; 20 to 200 g/ha, field): markedly improved
Phakopsora pachyrhizi disease level (leaf area covered) ([5]; aqueous preparation 20 to 200 g/ha, inoculated after treatment, 25 days after treatment, untreated 50%): ≤ 25%
